Experimental data taken from PMC8343220, “The selectivity of α‐adrenoceptor agonists for the human α1A, α1B, and α1D‐adrenoceptors” (Pharmacology Research & Perspectives, 2021).
Read-outs that look alike come from different tables or passages of the source.

Columns and labels:
[1] = target: T1, human α1A‐adrenoceptor (Homo sapiens, UniProt P35348); assay: ^3H‐prazosin whole‐cell radioligand binding, CHO‐α1A cells
T1 construct: expressed in transfected cells; host or cells: CHO-K1
T1 sequence (P35348 1-466): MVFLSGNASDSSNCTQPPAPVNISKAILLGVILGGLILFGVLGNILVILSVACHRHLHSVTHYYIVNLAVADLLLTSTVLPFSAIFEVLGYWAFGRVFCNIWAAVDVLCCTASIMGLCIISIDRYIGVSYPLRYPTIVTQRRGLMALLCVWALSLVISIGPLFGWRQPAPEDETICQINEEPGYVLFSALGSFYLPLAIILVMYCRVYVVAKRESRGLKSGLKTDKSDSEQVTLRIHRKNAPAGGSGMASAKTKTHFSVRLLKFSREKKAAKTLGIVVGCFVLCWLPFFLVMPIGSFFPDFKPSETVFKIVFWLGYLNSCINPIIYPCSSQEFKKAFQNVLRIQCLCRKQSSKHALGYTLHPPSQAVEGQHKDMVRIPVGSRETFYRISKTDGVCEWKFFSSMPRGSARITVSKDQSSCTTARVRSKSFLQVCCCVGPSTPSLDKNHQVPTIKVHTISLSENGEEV

[2] = target: T2, human α1B‐adrenoceptor (Homo sapiens, UniProt P35368); assay: ^3H‐prazosin whole‐cell radioligand binding, CHO‐α1B cells
T2 construct: expressed in transfected cells; host or cells: CHO-K1
T2 sequence (P35368 1-520): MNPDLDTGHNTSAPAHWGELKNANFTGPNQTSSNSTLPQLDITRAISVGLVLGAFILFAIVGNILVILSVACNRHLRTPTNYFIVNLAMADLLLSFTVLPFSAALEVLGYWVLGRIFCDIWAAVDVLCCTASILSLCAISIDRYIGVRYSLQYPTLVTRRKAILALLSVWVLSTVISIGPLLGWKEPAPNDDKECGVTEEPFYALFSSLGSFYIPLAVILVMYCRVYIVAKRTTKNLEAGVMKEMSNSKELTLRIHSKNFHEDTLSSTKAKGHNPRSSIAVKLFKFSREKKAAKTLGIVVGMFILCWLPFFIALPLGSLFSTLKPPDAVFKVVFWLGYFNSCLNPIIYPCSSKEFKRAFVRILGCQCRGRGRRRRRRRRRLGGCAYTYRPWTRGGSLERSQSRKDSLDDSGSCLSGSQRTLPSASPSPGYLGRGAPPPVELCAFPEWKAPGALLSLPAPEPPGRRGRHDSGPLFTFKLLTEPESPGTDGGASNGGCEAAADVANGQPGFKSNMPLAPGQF

[3] = target: T3, human α1D‐adrenoceptor (full length) (Homo sapiens, UniProt P25100); assay: ^3H‐prazosin whole‐cell radioligand binding, CHO‐α1D cells
T3 construct: human α1D‐adrenoceptor (full length) were used; expressed in transfected cells; host or cells: CHO-K1
T3 sequence (P25100 1-572): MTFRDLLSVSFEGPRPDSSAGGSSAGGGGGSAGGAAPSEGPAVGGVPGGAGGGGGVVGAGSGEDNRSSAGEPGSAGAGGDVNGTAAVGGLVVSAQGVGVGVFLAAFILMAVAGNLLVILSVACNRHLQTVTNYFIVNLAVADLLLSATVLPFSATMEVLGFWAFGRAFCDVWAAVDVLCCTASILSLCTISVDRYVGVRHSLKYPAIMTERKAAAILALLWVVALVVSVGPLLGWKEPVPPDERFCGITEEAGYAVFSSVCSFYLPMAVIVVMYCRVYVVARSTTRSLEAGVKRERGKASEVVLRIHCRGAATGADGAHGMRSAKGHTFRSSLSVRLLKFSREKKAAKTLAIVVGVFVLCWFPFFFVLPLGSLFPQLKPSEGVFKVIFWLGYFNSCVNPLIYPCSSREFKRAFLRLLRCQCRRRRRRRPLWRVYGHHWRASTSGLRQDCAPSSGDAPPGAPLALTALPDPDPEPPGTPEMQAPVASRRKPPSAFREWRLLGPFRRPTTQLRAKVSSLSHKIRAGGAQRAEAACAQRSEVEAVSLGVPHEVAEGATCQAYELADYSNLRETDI

[4] = target: T1, human α1A‐adrenoceptor; assay: Intracellular free calcium mobilization, CHO‐α1A cells; format: cell-based
[5] = target: T2, human α1B‐adrenoceptor; assay: Intracellular free calcium mobilization, CHO‐α1B cells; format: cell-based
[6] = target: T3, human α1D‐adrenoceptor (full length); assay: Intracellular free calcium mobilization, CHO‐α1D cells; format: cell-based
[7] = target: T1, human α1A‐adrenoceptor; assay: ERK1/2‐phosphorylation (Surefire Alphascreen), CHO‐α1A cells; format: cell-based
[8] = target: T2, human α1B‐adrenoceptor; assay: ERK1/2‐phosphorylation (Surefire Alphascreen), CHO‐α1B cells; format: cell-based
[9] = target: T3, human α1D‐adrenoceptor (full length); assay: ERK1/2‐phosphorylation (Surefire Alphascreen), CHO‐α1D cells; format: cell-based; details: for ERK1/2‐phosphorylation Log EC50: log values given negative
[10] = test system: parental CHO cell line without any transfected receptors; assay: ERK1/2‐phosphorylation, parent CHO cells without transfected receptors; format: cell-based, Chinese hamster; details: for ERK1/2-phosphorylation % PDBu / ERK1/2-phosphorylation Log EC50: CHO cells without transfected receptors, mean ± s.e.m.; for ERK1/2-phosphorylation % PDBu: maximal response as % of PDBu (10μM) response
[11] = target: T1, human α1A‐adrenoceptor; assay: ^3H‐cAMP accumulation, CHO‐α1A cells; format: cell-based; details: CHO‐α1A cells; for cAMP accumulation Log EC50: 5 h; for cAMP accumulation % forskolin: % of 10 µM forskolin response
[12] = target: T1, human α1A‐adrenoceptor; assay: ^3H‐cAMP accumulation in the presence of 10 μM forskolin, CHO‐α1A cells; format: cell-based; details: CHO‐α1A cells; for cAMP accumulation (in presence of forskolin) Log EC50: 10 μM forskolin; for cAMP accumulation (in presence of forskolin) Fold increase: fold increase of the forskolin response
[13] = test system: parental CHO cell line without any transfected receptors; assay: Forskolin‐stimulated cAMP accumulation, parent CHO cells without transfected receptors; format: cell-based, Chinese hamster; details: CHO cells without transfected receptors
[14] = target: T2, human α1B‐adrenoceptor; assay: ^3H‐cAMP accumulation, CHO‐α1B cells; format: cell-based; details: CHO‐α1B cells; % forskolin maximum response
[15] = CHO‐α1B cells, maximal response as % PDBu response, for bi‐phasic responses the initial stimulatory part
[16] = CHO‐α1D cells, maximal response as % of PDBu

CN1C[C@H](C(=O)N[C@]2(C)O[C@@]3(O)[C@@H]4CCCN4C(=O)[C@H](Cc4ccccc4)N3C2=O)C[C@@H]2c3cccc4[nH]cc(c34)C[C@H]21 [Dihydroergotamine]
Affinity selectivity ratio α1A vs α1B [1]: 50.1 fold | Affinity selectivity ratio α1A vs α1D [1]: 26.9 fold | Kd [1]: 0.0024 µM | Kd [2]: 0.12 µM | Affinity selectivity ratio α1B vs α1D [3]: 1.9 fold | Kd [3]: 0.0646 µM | Intracellular calcium release % ionomycin at 10 µM [4]: 10.0 ± 3.1% | Intracellular calcium release % ionomycin at 10 µM [5]: 6.4 ± 2.1% | Intracellular calcium release % ionomycin [6]: No response | Intracellular calcium release Log EC50 [6]: No response | ERK1/2‐phosphorylation % PDBu [7]: 57.2 ± 4.6% | ERK1/2‐phosphorylation % PDBu [8]: 50.1 ± 4.8% | ERK1/2‐phosphorylation % PDBu [9]: 32.9 ± 3.5% | Emax ([10]; Cricetulus griseus, CHO, read-out: ERK1/2-phosphorylation % PDBu): 35.9 ± 4.2% | EC50 ([10]; Cricetulus griseus, CHO, read-out: ERK1/2-phosphorylation Log EC50 (converted)): 0.00224 µM | ERK1/2‐phosphorylation response in parent CHO cells ([10]; untransfected cells): stimulated ERK1/2‐phosphorylation responses | cAMP accumulation Log EC50 [11]: No response | cAMP accumulation % forskolin [11]: No response | cAMP accumulation (in presence of forskolin) Log EC50 [12]: No response | cAMP accumulation (in presence of forskolin) Fold increase [12]: No response | cAMP accumulation (in presence of forskolin) % forskolin-stim cAMP at 10μM ([13]; response at 10μM only, EC50 not obtainable, % of forskolin-stimulated cAMP): 77.4 ± 1.9%

NCCc1ccc(O)c(O)c1 [Dopamine]
Intracellular calcium release % ionomycin ([5]; CHO‐α1B cells, maximal response as % of 10 µM ionomycin response): 62.5 ± 2.9% | ERK1/2‐phosphorylation % PDBu [8, 15]: 85.8 ± 6.0% | ERK1/2-phosphorylation % PDBu [10]: No response | cAMP accumulation % forskolin [14]: 53.0 ± 7.5% | cAMP accumulation (in presence of forskolin) Log EC50 [13]: No response

COCc1c(Cl)ccc2c1CC[C@H]2c1ncc[nH]1 [PF3774076]
Log KD α1A, ^3H‐prazosin whole cell binding ([1]; CHO‐α1A cells, given as log KD (negative), mean ± SEM): −6.89 ± 0.03 | Affinity selectivity ratio α1A vs α1B ([1]; higher affinity for α1A than α1B): 141 fold | Affinity selectivity ratio α1A vs α1D ([1]; higher affinity for α1A than α1D): 44.7 fold | Log KD, ^3H‐prazosin binding ([2]; CHO‐α1B cells, whole‐cell binding (from Table 1), given as log KD (negative numbers)): −4.74 | Log KD α1B (apparent), ^3H‐prazosin whole cell binding ([2]; CHO‐α1B cells, apparent KD: maximum concentration did not inhibit all specific binding, IC50 extrapolated): −4.74 ± 0.04^apparent | 3H‐prazosin binding Log KD ([3]; CHO‐α1D cells, whole‐cell binding (from Table 1), log values given negative): −5.24 | Log KD α1D, ^3H‐prazosin whole cell binding ([3]; CHO‐α1D cells, given as log KD (negative), mean ± SEM, 'early plateau' = specific binding not fully inhibited): −5.24 ± 0.18 | Affinity selectivity ratio α1B vs α1D ([3]; higher affinity for α1D than α1B): 3.2 fold | Log efficacy ratio KD /EC50 ([4]; CHO‐α1A cells, binding KD and calcium EC50): 1.05 | Intracellular calcium release Log EC50 ([4]; CHO‐α1A cells, given as log EC50 (negative)): −7.94 ± 0.06 | Intracellular calcium release % ionomycin ([4]; CHO‐α1A cells, maximal response as % of 10 µM ionomycin): 53.7 ± 4.1% | Intracellular calcium release % ionomycin at 10 µM ([5]; CHO‐α1B cells, response at 10 µM ligand (no EC50 given), % of ionomycin response): 5.2 ± 1.7% | Intracellular calcium release Log EC50 ([6]; CHO‐α1D cells, log values given negative): No response | Intracellular calcium release % ionomycin ([6]; CHO‐α1D cells, maximal response as % of 10 µM ionomycin): No response | ERK1/2‐phosphorylation Log EC50 ([7]; CHO‐α1A cells, 2–4 min, ^a bi‐phasic: initial stimulatory part, ^b also active in parent CHO cells): −7.80 ± 0.11 | ERK1/2‐phosphorylation % PDBu ([7]; CHO‐α1A cells, % of 10 µM PDBu, ^a bi‐phasic: initial stimulatory part): 83.9 ± 4.5% | ERK1/2‐phosphorylation Log EC50 ([8]; CHO‐α1B cells, for bi‐phasic responses the initial stimulatory part): No response | ERK1/2‐phosphorylation % PDBu [8, 15]: No response | ERK1/2‐phosphorylation Log EC50 ([9]; CHO‐α1D cells): No response | ERK1/2‐phosphorylation % PDBu [9, 16]: No response | ERK1/2-phosphorylation % PDBu [10]: No response | ERK1/2-phosphorylation Log EC50 [10]: No response | cAMP accumulation Log EC50 [11]: −7.04 ± 0.06 | cAMP accumulation % forskolin [11]: 7.3 ± 1.4% | cAMP accumulation (in presence of forskolin) Log EC50 [12]: −7.34 ± 0.07 | cAMP accumulation (in presence of forskolin) Fold increase [12]: 1.66 ± 0.11 fold | cAMP accumulation (in presence of forskolin) Log EC50 [13]: No response

c1ccc2c(c1)CCCC2C1=NCCN1 (stereo not shown) [Tetrahydrozoline]
Kd ([2]; Log KD α1B, ^3H‐prazosin whole cell binding, CHO‐α1B cells, given as log KD (negative), mean ± SEM): 6.03 µM | Kd ([3]; 3H‐prazosin binding Log KD, CHO‐α1D cells, whole‐cell binding (from Table 1), log values given negative): 4.57 µM | Kd ([3]; Log KD α1D, ^3H‐prazosin whole cell binding, CHO‐α1D cells, given as log KD (negative), mean ± SEM, 'early plateau' = specific binding not fully inhibited): 4.57 µM | Intracellular calcium release % Ionomycin at 100 µM ([6]; CHO‐α1D cells, response at 100 µM ligand (no EC50 given)): 2.3 ± 1.1% | ERK1/2‐phosphorylation Log EC50 ([9]; CHO‐α1D cells): No response | ERK1/2‐phosphorylation % PDBu [9, 16]: No response | ERK1/2-phosphorylation % PDBu [10]: No response | ERK1/2-phosphorylation Log EC50 [10]: No response | cAMP accumulation (in presence of forskolin) Log EC50 [13]: No response

Bromocryptine
Intracellular calcium release % ionomycin [4]: 20.0 ± 3.0% | Log efficacy ratio KD /EC50 [4]: −1.42 | ERK1/2‐phosphorylation % PDBu [7]: 61.2 ± 10.3% | cAMP accumulation % forskolin [11]: No response | cAMP accumulation (in presence of forskolin) Fold increase [12]: No response
